The results in this text go back to patent US6228870A, “Oxazolidinones useful as alpha 1a adrenoceptor antagonists” (Merck & Co., Inc., priority 1999, dated 2001).

The test system of this experiment is human alpha 1b adrenergic receptor. Description: Selective Binding Assay, alpha 1b (competition with [125I]-HEAT). The settings on record: alpha 1a versus alpha 1b. On the procedure: Membranes prepared from stably transfected human alpha 1d and alpha 1b cell lines (ATCC […] and CRL 11139, respectively) were used to identify compounds that selectively bind to the human alpha 1a adrenergic receptor. These competition binding) reactions (total volume=200 μl) contained 50 mM Tris-HCl pH. 7.4, 5 mM EDTA, 150 mM NaCl, 100 pM [^125 I]-HEAT, membranes prepared from cell lines transfected with the respective alpha 1 subtype expression plasmid and increasing amounts of unlabeled ligand. Reactions were incubated at room temperature for one hour with shaking. Reactions were filtered onto Whatman GF/C glass fiber filters with a Inotec 96 well cell harvester. Filters were washed three times with ice cold buffer and bound radioactivity was determined (Ki).

Consider `COC[C@@H]1OC(=O)N(C(=O)NCCCN2CCC(c3ccc(F)cc3C#N)CC2)[C@H]1c1ccc(F)c(F)c1` [Example 13, (4S,5R)-4-(3,4-Difluorophenyl)-5-methoxymethyl-2-oxo-oxazolidine-3-carboxylic acid {3-[4-(2-cyano-4-fluorophenyl)piperidin-1-yl]propyl}amide], for which the “selectivity in binding to alpha 1a receptors versus alpha 1b receptors” value was “about 453 fold”. Turning to `COC[C@@H]1OC(=O)N(C(=O)NCCCN2CCC(c3ccccc3C#N)CC2)[C@H]1c1ccc(F)c(F)c1` [Example 11, (4S,5R)-4-(3,4-Difluorophenyl)-5-methoxymethyl-2-oxo-oxazolidine-3-carboxylic acid {3-[4-(2-cyanophenyl)piperidin-1-yl]propyl}amide], the “selectivity in binding to alpha 1a receptors versus alpha 1b receptors” value is on record as “about 184 fold”.
